In patent publication US9487528B2 (CHIESI FARMACEUTICI S.p.A., priority 2014, dated 2016):

Molecular target: T1, human neutrophil elastase (HNE) (Homo sapiens, UniProt P08246)
T1 construct: purchased Sigma E8140
T1 sequence (P08246 30-267): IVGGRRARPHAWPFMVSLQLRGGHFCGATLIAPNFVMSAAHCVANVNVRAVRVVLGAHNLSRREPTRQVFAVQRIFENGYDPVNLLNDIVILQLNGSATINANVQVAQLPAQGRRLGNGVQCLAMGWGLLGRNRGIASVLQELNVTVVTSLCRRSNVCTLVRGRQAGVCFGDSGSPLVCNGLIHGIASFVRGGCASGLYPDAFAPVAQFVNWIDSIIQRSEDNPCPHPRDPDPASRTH
Assay: HNE enzyme assay (human neutrophil elastase enzyme activity, fluorogenic peptide substrate)
Format: biochemical
Details: human leukocyte elastase 0.00072 U/mL; MeOSuc-Ala-Ala-Pro-Val-AMC 100 μM; 25° C., 30 minutes; at least two separate experiments; read-out: HNE inhibition (IC50 values)
Description: Compounds of this invention were tested for potency in a human neutrophil elastase (HNE) enzyme activity assay.
Assays were performed in 96-well plates in a total assay volume of 100 μL. The final concentration of elastase enzyme (human leukocyte elastase, Sigma E8140) was 0.00072 U/mL. The peptide substrate (MeOSuc-Ala-Ala-Pro-Val-AMC, Calbiochem #324740) was used at a final concentration of 100 μM. The final concentration of DMSO was 1% in the assay buffer (0.05M Tris.HCl, 0.1M NaCl, 0.1M CaCl2, 0.0005% brij-35, pH 7.5). The enzymatic reaction was started by addition of the enzyme and incubated at 25° C. for 30 minutes. After incubation, the reaction was stopped by addition of soybean trypsin inhibitor (Sigma T9003) at a final concentration of 50 μg/well. Fluorescence was measured using a Molecular Devices fluorescence plate reader using 380 nm excitation and 460 nm emission wavelengths.
A dose response to each compound was performed and the effect of the compound in each experiment was expressed as a percentage inhibition of the control enzyme fluorescence. Dose response curves were plotted and compound potency (IC50) was determined. Compounds were tested in at least two separate experiments.

Compound	IC50 [nM]
COC(=O)C1=C(C)N(c2cccc(C(F)(F)F)c2)c2n[nH]c(=O)n2[C@H]1c1ccc(C#N)cc1OC (racemic) [Example 33b]	20 to 100
COCCOc1cc(C#N)ccc1[C@@H]1C(C(=O)OC)=C(C)N(c2cccc(C(F)(F)F)c2)c2n[nH]c(=O)n21 (single isomer, unassigned) [Example 34a]	< 20
COCCOc1cc(C#N)ccc1[C@@H]1C(C(=O)OC)=C(C)N(c2cccc(C(F)(F)F)c2)c2n[nH]c(=O)n21 (single isomer, unassigned) [Example 34b]	20 to 100
CC1=C(C#N)[C@@H](c2ccc(C#N)cc2C(O)CO)n2c(n[nH]c2=O)N1c1cccc(C(F)(F)F)c1 (single isomer, unassigned) [Example 35a]	< 20
CC1=C(C#N)[C@@H](c2ccc(C#N)cc2CCO)n2c(n[nH]c2=O)N1c1cccc(C(F)F)c1 (single isomer, unassigned) [Example 38a]	< 20
CC1=C(C#N)[C@@H](c2ccc(C#N)cc2CCO)n2c(n[nH]c2=O)N1c1cccc(C(F)(F)F)c1 [Example 36, (R)-5-[4-Cyano-2-(2-hydroxy-ethyl)-phenyl]-7-methyl-3-oxo-8-(3-trifluoromethyl-phenyl)-2,3,5,8-tetrahydro-[1,2,4]triazolo[4,3-a]pyrimidine-6-carbonitrile]	< 20
CC1=C(C#N)[C@@H](c2ccc(C#N)cc2CCS(C)(=O)=O)n2c(n[nH]c2=O)N1c1cccc(C(F)(F)F)c1 [Example 37, (R)-5-[4-Cyano-2-(2-methanesulfonyl-ethyl)-phenyl]-7-methyl-3-oxo-8-(3-trifluoromethyl-phenyl)-2,3,5,8-tetrahydro-[1,2,4]triazolo[4,3-a]pyrimidine-6-carbonitrile]	< 20

Now from value to compound:

IC50 [nM]	Compound
20 to 100	CC1=C(C#N)[C@@H](c2ccc(C#N)cc2C(O)CO)n2c(n[nH]c2=O)N1c1cccc(C(F)F)c1 (mixture of isomers) [Example 39d, (R) and (S)-5-[4-Cyano-2-(1,2-dihydroxy-ethyl)-phenyl]-8-(3-difluoromethyl-phenyl)-7-methyl-3-oxo-2,3,5,8-tetrahydro-[1,2,4]triazolo[4,3-a]pyrimidine-6-carbonitrile]
100 to 500	CC1=C(C#N)[C@@H](c2ccc(C#N)cc2CCO)n2c(n[nH]c2=O)N1c1cccc(C(F)F)c1 (single isomer, unassigned) [Example 38b]
< 20	CC1=C(C#N)[C@@H](c2ccc(C#N)cc2C(O)CO)n2c(n[nH]c2=O)N1c1cccc(C(F)F)c1 (single isomer, unassigned) [Example 39a]
100 to 500	CC1=C(C#N)C(c2ccc(C#N)cc2C(O)CO)n2c(n[nH]c2=O)N1c1cccc(C(F)F)c1 (single isomer, unassigned) [Example 39b]
